The experiment addresses T1, α4β1 integrin (Homo sapiens, UniProt P05556+P13612).
T1 construct: Ramos cells fluorescently labeled with calcein; endogenous in cells; host or cells: Ramos cells
The experiment is described as follows: Inhibition of adhesion of calcein-labeled Ramos cells to CS1 (fibronectin) peptide-conjugated ovalbumin. The experiment is classed as cell-based. To be noted: Table 1; for inhibition at 100 µM: Ramos, compound at a concentration of 100 μM, read-out: % A (percent inhibition of cell adhesion); for IC50: dose required to give 50% inhibition, Ramos cell adhesion to CS1-ovalbumin, 30 minutes at 37° C. Here is the method: The ability of compounds of the present invention to inhibit binding is described in detail hereinafter in the Examples by a procedure in which a 26-amino acid peptide containing the CS1 sequence of fibroncctin with an N-terminal Cys was coupled to maleimide activated ovalbumin. Ovalbumin and CS1 conjugated ovalbumin were coated onto 96-well polystyrene plates at 5 μg/ml in TBS (50 mM Tris, pH 7.5; 150 mM NaCl) at 4° C. for 16 hours. The plates were washed three times with TBS and blocked with TBS containing 3% BSA at room temperature for 4 hours. Blocked plates were washed three times in binding buffer (TBS; 1 mM MgCl2; 1 mM CaCl2; 1 mM MnCl2) prior to assay. Ramos cells fluorescently labeled with calcein AMC-3099 were resuspended in binding buffer (10^7 cells/ml) and diluted 1:2 with same buffer with or without compound. The cells were added immediately to the wells (2.5×10^5 cells/well) and incubated for 30 minutes at 37° C. Following three washes with binding buffer, adherent cells were lysed and quantitated using a fluorometer.
IC50 is defined as the dose required to give 50% inhibition. The lower the IC50 value and the greater the percentage of inhibition, the more efficient the compound is at prevention of cell adhesion. A stands for inhibition in Table 1, and the percent inhibition indicates the inhibition of cell adhesion when compound is included in the assay at a concentration of 100 μM.

In general, inhibition refers to how much of the control response was suppressed. Usually IC50 stands for the concentration that inhibits the measured activity by half.

The structures appear in SMILES notation.

T1 sequence (P13612 34-1032): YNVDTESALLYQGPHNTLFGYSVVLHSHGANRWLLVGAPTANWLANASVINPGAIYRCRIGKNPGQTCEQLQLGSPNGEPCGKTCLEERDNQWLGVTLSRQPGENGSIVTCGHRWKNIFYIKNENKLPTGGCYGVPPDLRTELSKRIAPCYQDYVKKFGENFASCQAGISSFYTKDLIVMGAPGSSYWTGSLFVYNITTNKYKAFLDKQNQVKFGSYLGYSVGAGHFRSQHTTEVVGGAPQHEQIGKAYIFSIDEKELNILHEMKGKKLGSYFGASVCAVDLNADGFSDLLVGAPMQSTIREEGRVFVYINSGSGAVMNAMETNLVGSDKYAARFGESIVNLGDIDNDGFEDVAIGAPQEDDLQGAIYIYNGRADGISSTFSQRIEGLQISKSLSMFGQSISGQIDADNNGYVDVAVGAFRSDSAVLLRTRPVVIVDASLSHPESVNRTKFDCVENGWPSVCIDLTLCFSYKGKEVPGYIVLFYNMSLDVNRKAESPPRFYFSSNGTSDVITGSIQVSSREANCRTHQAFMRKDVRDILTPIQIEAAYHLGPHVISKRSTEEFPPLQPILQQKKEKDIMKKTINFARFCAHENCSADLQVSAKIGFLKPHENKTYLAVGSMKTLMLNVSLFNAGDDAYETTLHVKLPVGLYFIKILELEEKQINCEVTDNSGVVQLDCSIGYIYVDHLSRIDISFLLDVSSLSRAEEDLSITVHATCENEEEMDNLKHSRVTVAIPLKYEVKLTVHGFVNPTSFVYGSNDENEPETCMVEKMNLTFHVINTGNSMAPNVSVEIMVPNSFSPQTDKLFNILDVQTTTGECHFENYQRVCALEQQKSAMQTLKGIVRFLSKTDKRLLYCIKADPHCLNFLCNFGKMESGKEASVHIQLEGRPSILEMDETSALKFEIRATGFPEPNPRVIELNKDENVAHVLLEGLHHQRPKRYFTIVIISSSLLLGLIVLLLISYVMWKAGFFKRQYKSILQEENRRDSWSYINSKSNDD
T1 sequence (P05556 21-798): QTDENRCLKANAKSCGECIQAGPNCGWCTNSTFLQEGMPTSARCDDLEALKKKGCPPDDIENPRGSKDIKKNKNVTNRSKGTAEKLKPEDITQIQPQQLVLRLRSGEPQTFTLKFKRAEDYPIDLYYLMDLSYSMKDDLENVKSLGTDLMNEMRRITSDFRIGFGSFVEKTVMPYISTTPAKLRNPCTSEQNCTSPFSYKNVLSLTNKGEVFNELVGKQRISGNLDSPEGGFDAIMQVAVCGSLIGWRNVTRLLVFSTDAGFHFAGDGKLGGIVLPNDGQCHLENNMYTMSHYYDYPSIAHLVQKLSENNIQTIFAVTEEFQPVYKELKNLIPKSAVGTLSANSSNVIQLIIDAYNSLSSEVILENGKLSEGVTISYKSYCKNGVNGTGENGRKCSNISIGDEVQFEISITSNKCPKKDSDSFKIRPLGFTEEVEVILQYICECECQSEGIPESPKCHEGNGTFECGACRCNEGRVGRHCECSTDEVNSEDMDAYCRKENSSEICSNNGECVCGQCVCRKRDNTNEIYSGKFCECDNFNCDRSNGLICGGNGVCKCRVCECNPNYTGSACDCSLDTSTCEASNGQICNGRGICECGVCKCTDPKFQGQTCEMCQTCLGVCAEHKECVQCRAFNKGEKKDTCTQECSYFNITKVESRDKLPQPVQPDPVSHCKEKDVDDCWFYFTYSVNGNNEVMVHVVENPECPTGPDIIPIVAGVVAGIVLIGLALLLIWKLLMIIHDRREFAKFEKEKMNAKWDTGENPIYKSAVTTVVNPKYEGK

In the case of `CC(C)[C@@H](CSCCc1ccccc1)NC(=O)N[C@@H](CC(=O)O)c1ccc2c(c1)OCO2` [(3S)-3-(1,3-benzodioxol-5-yl)-3-{[({(1S)-2-methyl-1-[(phenethylsulfanyl)methyl]propyl}amino)carbonyl]amino}propanoic acid], the inhibition at 100 µM is 98% and the IC50 was 20000 nM.

Turning to `Cc1ccc(S(=O)(=O)NC[C@@H](CSc2ccccc2)NC(=O)N[C@@H](CC(=O)O)c2ccc3c(c2)OCO3)cc1` [(3S)-3-(1,3-benzodioxol-5-yl)-3-{[({(1S)-2-{[(4-methylphenyl)sulfonyl]amino}-1-[(phenylthio)methyl]ethyl}amino)carbonyl]amino}propanoic acid], the inhibition at 100 µM was 98% and the concentration for half-maximal inhibition (IC50) was 10000 nM.

On to `CSCC[C@@H](CSc1ccccc1)NC(=S)N[C@@H](CC(=O)O)c1ccc2c(c1)OCO2` [(3S)-3-(1,3-benzodioxol-5-yl)-3-{[({(1S)-3-(methylsulfanyl)-1-[(phenylsulfanyl)methyl]propyl}amino)carbothioyl]amino}propanoic acid], for which the inhibition at 100 µM is 100% and the 50% inhibitory concentration (IC50) was 3000 nM.

For the molecule `CSCC[C@@H](CSc1cccc(NC(=O)Nc2ccccc2C)c1)NC(=O)N[C@@H](CC(=O)O)c1ccc2c(c1)OCO2` [(3S)-3-(1,3-benzodioxol-5-yl)-3-{[({(1S)-3-(methylsulfanyl)-1-[({3-[(2-toluidinocarbonyl)amino]phenyl}sulfanyl)methyl]propyl}amino)carbonyl]amino}propanoic acid], the inhibition at 100 µM was 100% and the half-inhibitory concentration (IC50) was 2 nM.

Turning to `CSCC[C@@H](CSc1ccc(NC(=O)Nc2ccccc2C)cc1)NC(=O)N[C@@H](CC(=O)O)c1ccc2c(c1)OCO2` [(3S)-3-(1,3-benzodioxol-5-yl)-3-{[({(1S)-3-(methylsulfanyl)-1-[({4-[(2-toluidinocarbonyl)amino]phenyl}sulfanyl)methyl]propyl}amino)carbonyl]amino}propanoic acid], the inhibition at 100 µM is 100% and the IC50 is 0.9 nM.

For the molecule `CSCC[C@@H](CSc1ccc(NS(C)(=O)=O)cc1)NC(=O)N[C@@H](CC(=O)O)c1ccc2c(c1)OCO2` [(3S)-3-(1,3-benzodioxol-5-yl)-3-{[({(1S)-3-(methylsulfanyl)-1-[({4-[(methylsulfonyl)amino]phenyl}sulfanyl)methyl]propyl}amino)carbonyl]amino}propanoic acid], the inhibition at 100 µM is 100% and the IC50 was 500 nM.

For `CCCS(=O)(=O)Nc1cccc(SC[C@H](CCSC)NC(=O)N[C@@H](CC(=O)O)c2ccc3c(c2)OCO3)c1` [(3S)-3-(1,3-benzodioxol-5-yl)-3-{[({(1S)-3-(methylthio)-1-[({3-[(propylsulfonyl)amino]phenyl}thio)methyl]propyl}amino)carbonyl]amino}propanoic acid], the inhibition at 100 µM is 100% and the half-inhibitory concentration (IC50) is 500 nM.

For `O=C(O)C[C@H](NC(=O)N[C@@H](CCSc1ccccc1)CSc1ccccc1)c1ccc2c(c1)OCO2` [(3S)-3-(1,3-benzodioxol-5-yl)-3-{[({(1S)-3-(phenylthio)-1-[(phenylthio)methyl]propyl}amino)carbonyl]amino}propanoic acid], the inhibition at 100 µM was 100% and the IC50 was 300 nM.

For `CC(C)C[C@@H](CSc1ccccc1)NC(=O)N[C@@H](CC(=O)O)c1ccc2c(c1)OCO2` [(3S)-3-(1,3-benzodioxol-5-yl)-3-{[({(1S)-3-methyl-1-[(phenylsulfanyl)methyl]butyl}amino)carbonyl]amino}propanoic acid], the inhibition at 100 µM is 100% and the IC50 was 2000 nM.

`O=C(O)C[C@H](NC(=O)N[C@@H](CCCO)CSc1ccccc1)c1ccc2c(c1)OCO2` [(3S)-3-(1,3-benzodioxol-5-yl)-3-{[({(1S)-4-hydroxy-1-[(phenylthio)methyl]butyl}amino)carbonyl]amino}propanoic acid]: the inhibition at 100 µM is 100% and the IC50 is 2000 nM.

For the molecule `CC(C)C(NC(=O)N[C@@H](CC(=O)O)c1ccc2c(c1)OCO2)C(Sc1ccccc1)Sc1ccccc1` (stereo partly drawn) [(3S)-3-[({[1-{[bis-(phenylsulfanyl)]methyl}-2-methylpropyl]amino}carbonyl)amino]-3-[(3,4-methylenedioxy)phenyl]propanoic acid], the inhibition at 100 µM was 95% and the concentration for half-maximal inhibition (IC50) was 35000 nM.

Take `CSCC[C@@H](CSc1ccc(NC(C)=O)cc1)NC(=O)N[C@@H](CC(=O)O)c1ccc2c(c1)OCO2` [(3S)-3-[({[(1S)-1-({[4-(acetylamino)phenyl]sulfanyl}methyl)-3-(methylsulfanyl)propyl]amino}carbonyl)amino]-3-(1,3-benzodioxol-5-yl)propanoic acid]: the inhibition at 100 µM is 100% and the half-inhibitory concentration (IC50) is 3000 nM.

Take `CSCC[C@@H](CSc1ccccc1N)NC(=O)N[C@@H](CC(=O)O)c1ccc2c(c1)OCO2` [(3S)-3-[({[(1S)-1-{[(2-aminophenyl)sulfanyl]methyl}-3-(methylsulfanyl)propyl]amino}carbonyl)amino]-3-(1,3-benzodioxol-5-yl)propanoic acid]: the inhibition at 100 µM was 100% and the 50% inhibitory concentration (IC50) is 300 nM.

On to `CSCC[C@@H](CSc1cccc(N)c1)NC(=O)N[C@@H](CC(=O)O)c1ccc2c(c1)OCO2` [(3S)-3-[({[(1S)-1-{[(3-aminophenyl)thio]methyl}-3-(methylthio)propyl]amino}carbonyl)amino]-3-(1,3-benzodioxol-5-yl)propanoic acid], for which the inhibition at 100 µM was 100% and the IC50 was 300 nM.

For the molecule `CSCC[C@@H](CSc1ccc(N)cc1)NC(=O)N[C@@H](CC(=O)O)c1ccc2c(c1)OCO2` [(3S)-3-[({[(1S)-1-{[(4-aminophenyl)sulfanyl]methyl}-3-(methylsulfanyl)propyl]amino}carbonyl)amino]-3-(1,3-benzodioxol-5-yl)propanoic acid], the inhibition at 100 µM was 100% and the concentration for half-maximal inhibition (IC50) was 3000 nM.

As to `C=CCOC[C@@H](CSc1ccccc1)NC(=O)N[C@@H](CC(=O)O)c1ccc2c(c1)OCO2` [(3S)-3-{[({(1S)-2-(allyloxy)-1-[(phenylthio)methyl]ethyl}amino)carbonyl]amino}-3-(1,3-benzodioxol-5-yl)propanoic acid], the inhibition at 100 µM was 100% and the IC50 is 300 nM.

For `CSCC[C@@H](CSc1ccccc1)NC(=O)N[C@H](CSC)CC(=O)O` [(3S)-4-(methylsulfanyl)-3-{[({(1S)-3-(methylsulfanyl)-1-[(phenylsulfanyl)methyl]propyl}amino)carbonyl]amino}butanoic acid], the inhibition at 100 µM was 99% and the IC50 is 8000 nM.

Turning to `COC(=O)NCCC[C@@H](CSc1ccccc1)NC(=O)N[C@@H](CC(=O)O)c1ccc2c(c1)OCO2` [(8S,12S)-12-(1,3-benzodioxol-5-yl)-3,10-dioxo-8-((phenylsulfanyl)methyl)-2-oxa-4,9,11-triazatetradecan-14-oic acid], the inhibition at 100 µM was 100% and the IC50 is 2000 nM.

With `COC(=O)NCCCC[C@H](NC(=O)N[C@@H](CC(=O)O)c1ccc2c(c1)OCO2)C(=O)NCc1nc2ccccc2[nH]1` [(9S,13S)-9-{[(1H-benzimidazol-2-ylmethyl)amino]carbonyl}-13-(1,3-benzodioxol-5-yl)-3,11-dioxo-2-oxa-4,10,12-triazapentadecan-15-oic acid], the inhibition at 100 µM is 100% and the half-maximal inhibitory concentration (IC50) was 2000 nM.

Regarding `COC(=O)NCCCC[C@H](NC(=O)N[C@@H](CC(=O)O)c1ccc2c(c1)OCO2)C(=O)NCc1ccc(N)cc1` [(9S,13S)-9-{[(4-aminobenzyl)amino]carbonyl}-13-(1,3-benzodioxol-5-yl)-3,11-dioxo-2-oxa-4,10,12-triazapentadecan-15-oic acid], the inhibition at 100 µM was 100% and the IC50 is 300 nM.

For the molecule `O=C(O)C[C@H](NC(=O)N[C@@H](CCCCNC(=O)OCc1ccccc1)C(=O)NCCc1ccccn1)c1ccc2c(c1)OCO2` [(9S,13S)-13-(1,3-benzodioxol-5-yl)-3,11-dioxo-1-phenyl-9-({[2-(2-pyridinyl)ethyl]amino}carbonyl)-2-oxa-4,10,12-triazapentadecan-15-oic acid], the inhibition at 100 µM is 100% and the IC50 was 2000 nM.

Regarding `Cc1ccccc1NC(=O)Nc1ccc(CNC(=O)[C@H](CCCCNC(=O)OCc2ccccc2)NC(=O)N[C@@H](CC(=O)O)c2ccc3c(c2)OCO3)cc1` [(9S,13S)-13-(1,3-benzodioxol-5-yl)-3,11-dioxo-1-phenyl-9-[({4-[(2-toluidinocarbonyl)amino]benzyl}amino)carbonyl]-2-oxa-4,10,12-triazapentadecan-15-oic acid], the inhibition at 100 µM was 100% and the IC50 was 0.3 nM.

Regarding `O=C(O)C[C@H](NC(=O)N[C@@H](CCCCNC(=O)OCc1ccccc1)C(=O)NCCCN1CCCC1=O)c1ccc2c(c1)OCO2` [(9S,13S)-13-(1,3-benzodioxol-5-yl)-3,11-dioxo-9-({[3-(2-oxo-1-pyrrolidinyl)propyl]amino}carbonyl)-1-phenyl-2-oxa-4,10,12-triazapentadecan-15-oic acid], the inhibition at 100 µM is 100% and the half-maximal inhibitory concentration (IC50) was 3000 nM.

These data come from patent US6262084A, “Compounds that inhibit the binding of integrins to their receptors” (Texas Biotechnology Corporation, priority 1999, dated 2001).
